Data: US5663151A, “Sulfated α-glycolipid derivatives as cell adhesion inhibitors” (Bristol-Myers Squibb Company, priority 1995, dated 1997)
pIC50: −log10 of the molar value.

Assays:
P-selectin [1] = target: T1, P-selectin (Homo sapiens, UniProt P16109); test: P-selectin binding ELISA to immobilized sulfatides (cell free); details: inhibition of P-selectin binding to immobilized sulfatide
T1 construct: consists of the human lectin domain, the EGF domain, and two complement repeats of the human selectins; made in house
Method: Based on the availability of soluble forms of P-selectin prepared as described by Aruffo, A., et al., Cell, 67, 35-44 (1991), a binding ELISA based assay modified from Foxall, et al., J., Cell Biol., 117, 895-902 (1992) was developed to measure inhibitors of P-selectin binding to immobilized sulfatides. Such inhibitors were tested in the assay described below.
0.1 ml of sulfatide (SIGMA) or lysosulfatide (SIGMA) each at 1 μg/ml in MeOH were added to the wells of a 96-well ELISA plate (ProBind, Falcon) and allowed to dry overnight at room temperature. The next day the antigen coated plates were blocked for 1.5 hours at room temperature with 5% BSA (ICN) in buffer containing 20 mM Hepes and 0.15M NaCl, pH 8.0. Wild type P-selectin and mutants thereof were first mixed with HRP-conjugated goat anti-human lgG (Fisher Scientific), serially diluted and then incubated for 30 minutes at 37° C. in buffer containing 20 mM Hepes, 0.15M NaCl, 1% BSA and 0.8 mM CaCl2, pH 8.0 prior to addition to the BSA blocked plates. Following the 30 minute preincubation, the fusion protein-HRP conjugate immunocomplexes were incubated on the blocked antigen coated plates for 45 minutes at 37° C. in the presence or absence of the test compounds and then washed to remove any unbound proteins. Bound complexes were detected by addition of substrate buffer (95 mM NaOAc.3H2 O, 5 mM citric acid monohydrate, 1.4 mM urea/H2O2) containing 3, 3', 5, 5' Tetramethylbenzidine (SIGMA). Reactions were stopped by the addition of 3N sulfuric acid and the absorbance read on an ELISA reader at dual wavelengths 450 and 630 nm. The efficacy of these compounds was compared to that of sulfatide (positive control) or to lysosulfatide (negative control). The data is obtained as percent inhibition of specific binding [formula] and a plot of dose vs. percent inhibition of Rg binding is generated in which IC50 (μM) is calculated and reported as cell free data in Table 1.

P-selectin Rg = target: T2, P-selectin Rg (Homo sapiens, UniProt P16109); test: HL-60 cell binding to P-selectin Rg; type: cell-based; details: HL-60 cells, binding to P-selectin Rg coated wells
T2 construct: consists of the human lectin domain, the EGF domain, and two complement repeats of the human selectins; made in house
Method: 2. HL-60 Cell Binding to P- and E-Selectin RG
The chimeric P- and E-selectin receptor globulin (Rg) consists of the human lectin domain, the EGF domain, and two complement repeats of the human selectins fused to the hinge, CH1 and CH2 domains of human IgG1. These proteins were prepared as described by Aruffo, et al., Cell (1991) 67: 35-44; Walz, et al., Science (1990) 250, 1132-1135.
The HL-60 cell line, obtained from the American Type Culture Collection, ATCC No. CCL240, was employed to investigate P-selectin Rg binding. Assays were done in 96-well tissue culture dishes. The wells were first coated with 0.5 ug goat anti-human Fc antiserum overnight, and nonspecific binding sites were blocked by incubation of the wells with 1% nonfat dry milk in phosphate buffered saline (PBS containing 0.9 mM CaCl2 and 0.8 mM MgSO4) for 30 minutes. The Rg was then bound to the anti Fc-coated wells by incubating 50 ng in 50 ul of PBS for two hours. Cells, washed twice and resuspended in PBS to remove traces of medium components, were labeled with 10 uM calcein acetoxy methyl ester for 30 minutes at 3×10^7 cells per ml at room temperature. Serum-containing medium (RPMI with 20% fetal calf serum) was added, and the cells washed, followed by resuspension in PBS and a further spin. The labeled cells, resuspended in PBS, were added to twice washed Rg-containing wells at 200,000 per well. Following a 30 minute incubation with slow shaking, the wells were aspirated and washed three times with PBS to remove unbound cells. To certain wells were added known numbers of cells for determination of a standard curve of fluorescent units per cell. The fluorescence on the plate was quantitated using a fluorescent plate reader. Following subtraction of a blank representing the binding of cells to non-Rg containing wells (<5000 cells), the specific binding to P- or E- selectin was determined.
Inhibitors of cell binding
Test compounds were prepared by dissolution to a final concentration of 20 mg/ml in dimethyl sulfoxide (DMSO), diluted in PBS to 2 mg/ml, and briefly sonicated prior to use. The Rg coated wells were preincubated at room temperature for 15 minutes with the inhibitor, and 200,000 cells were added to yield the final indicated inhibitor concentration in 160 ul of PBS. The data is obtained as percent inhibition of specific binding: [formula] and a plot of dose vs. percent inhibition of Rg binding is generated in which IC50 (μM) is calculated and reported in Table 1.

rats = test: Reverse passive Arthus reaction (RPA) in rats; type: in vivo, Male Sprague Dawley rats; details: 3 mg single dose IV, 4 hours; for RPA MPO % Inhib.: myeloperoxidase; for RPA VP % Inhib.: vascular permeability
Text: 3. Reverse Passive Arthus Reaction in Rats
The reverse passive Arthus reaction in rats is a modification of the method by Mulligan et al., as described in J. Clin. Invest. (1991) 88: 1396-1406. This is an experimental model in which the interaction of antigen-antibodycomplexes and complement leads to a severe vasculitis that is associated with edema, induration, erythema and hemorrhage. The interaction between the antigen-antibody complexes and complement leads to a localized influx of neutrophils. These neutrophils release a variety of mediators that are associated with tissue damage and vascular permeability. The localized inflammatory reaction is measured using different techniques i.e., vascular permeability and neutrophil influx which is evaluated both biochemically and microscopically.
Male Sprague Dawley specific pathogen-free rats with jugular vein cannulae (280-320 g, Hill Top Labs, Pa.) are used in these studies. Animals are acclimated for at least 1 day and individually housed in stainless steel cages. The dorsal region of the rats is closely clipped 2 days prior to the experiments and divided into 4 sites on each side of the midline. Prior to all injections the rats are sedated with 0.4 ml per 300 gm rat of ketamine/rompun [1000 mg (10 ml) of ketamine HCL is mixed with 40 mg (2.0 ml) Rompun] administered IP and or inhalation anesthesia with metafane (methoxyflurane).
Bovin Serum Albumin (BSA) and rabbit polyclonal IgG rich in anti-BSA are purchased from Sigma Chemical Co. (St. Louis, Mo.). Radiolabelled ^125 I-BSA (spAct 1-5 μCi/μg) is purchased from Dupont NEN (Boston, Mass.).
Each rat is administered intradermal (ID) injection of (0.4 mg, 0.6 mg and 0.8 mg) anti-BSA in a volume of 100 μl per injection in normal saline. The ID injections are randomized near the mid dorsal region on both sides of the back bone. Immediately after the ID injections of the anti-BSA, the rats are administered intravenous (IV) injections of BSA (10 mg in 1.0 ml) in normal saline containing ^125 I labeled BSA (1 μCi/ml BSA or 5.0 μCi/kg body wt) for quantification of dermal vascular injury. Anti-inflammatory agents such as inhibitors of adhesion molecules of the present invention are administered IV at a single dose of 3 mg immediately after BSA. Four (4) hours after the IV injection of BSA, the rats are anesthetized with metafane and 2 to 3 ml of blood is withdrawn via the cannula into an anticoagulant containing (EDTA or Heparin) tube and plasma separated and saved for neutrophil and albumin quantitation. The rats are killed and the skin surrounding the injection site (15 mm diameter) is punched out and weighed. The skin samples and a fixed volume of plasma (0.1 to 1.0 ml) is analyzed in a gamma-counter for ^125 I content. Skin samples from the contralateral side are processed and analyzed for myeloperoxidase activity (MPO) as a measure of neutrophil accumulation. As needed, samples are also processed for histological evaluation of the reacted sites.
Vascular Permeability (VP)
The calculation of the plasma protein exudation into skin is made by determining the radioactivity in the tissue and relating this to the level of radioactive albumin in the blood at the time of sacrifice. […] [formula]
Percent inhibition of the test compound at 3 mg was determined as follows: [formula] Myeloperoxidase (MPO)
MPO is located in the azurophil granules of polymorphonuclear leukocytes (PMN). Because of its abundance in these cells (5% dry weight), this enzyme is used as a marker for tissue neutrophil content. For tissue MPO content, the method of Bradley, et al., was used as described in J. Invest. Dermatol. (1982) 78: 206-209. Biopsies from each treatment group were placed in plastic tubes (15×100 mm) containing 10 ml of 0.5% hexadecyltrimethylammonium bromide (HTAB) in 0.05M potassium phosphate buffer pH 6.0. The tissue was then homogenized with a Brinkmann Polytron homogenizer (10s). […]

P-selectin [2] = details: Skinner et al.; cited from earlier work

T2 sequence (P16109 with tags, fused parts or gaps limits assumed): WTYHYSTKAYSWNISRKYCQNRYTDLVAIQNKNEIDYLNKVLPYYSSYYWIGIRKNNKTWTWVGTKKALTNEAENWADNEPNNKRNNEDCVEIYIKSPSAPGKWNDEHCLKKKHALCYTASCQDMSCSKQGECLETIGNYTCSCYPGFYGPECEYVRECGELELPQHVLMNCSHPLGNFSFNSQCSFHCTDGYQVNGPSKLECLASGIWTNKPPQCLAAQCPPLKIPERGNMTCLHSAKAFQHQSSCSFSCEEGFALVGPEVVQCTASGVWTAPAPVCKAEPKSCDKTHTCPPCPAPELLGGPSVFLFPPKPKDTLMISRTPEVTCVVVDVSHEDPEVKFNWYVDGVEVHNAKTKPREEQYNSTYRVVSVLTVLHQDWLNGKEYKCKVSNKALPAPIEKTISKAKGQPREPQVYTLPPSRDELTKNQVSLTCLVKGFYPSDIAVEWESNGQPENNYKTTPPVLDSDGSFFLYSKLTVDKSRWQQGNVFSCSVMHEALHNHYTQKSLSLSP
T1 sequence (P16109 with tags, fused parts or gaps limits assumed): as above

**Q.** With CCCCCCCCCCCCC/C=C/[C@@H](OC(=O)c1ccccc1)[C@H](CO[C@H]1O[C@H](COS(=O)(=O)O)[C@H](OS(=O)(=O)O)[C@H](OC(=O)c2ccccc2)[C@H]1OC(=O)c1ccccc1)NC(=O)CCCCCCCCCCCCCCC [Example 1, (2S,3R,4E)-3-Benzoyloxy-2-hexadecanoylamino-1-[2,3-di-O-benzoyl-4,6-di-O-(sodiumoxysulfonyl)-α-D-galactopyranosyloxy]-4-octadecene] as the compound, how does the pIC50 (P-selectin [1]) read?
**A.** The pIC50 was 6.52.

**Q.** What about the pIC50 (P-selectin Rg) of the same compound?
**A.** The pIC50 was 5.08.

**Q.** And the “RPA MPO % Inhib.” value (rats)?
**A.** The value was 97%.

**Q.** What about the “RPA VP % Inhib.” value (rats) of the same compound?
**A.** The value was 68%.

**Q.** What does the source list for CCCCCCCCCCCCC/C=C/[C@@H](O)[C@H](CO[C@H]1O[C@H](COS(=O)(=O)O)[C@H](OS(=O)(=O)O)[C@H](O)[C@H]1O)NC(=O)CCCCCCCCCCCCCCC [Example 2, (2S,3R,4E)-3-Hydroxy-2-hexadecanoylamino-1-[4,6-di-O-(sodiumoxysulfonyl)-α-D-galactopyranosyloxy]-4-octadecene]?
**A.** pIC50 (P-selectin [1]): 6.70; pIC50 (P-selectin Rg): 4.77; RPA MPO % Inhib. (rats): 0%; RPA VP % Inhib. (rats): 14%

**Q.** With CCCCCCCC/C=C\CCCCCCCCCCCCCC(=O)N[C@@H](CO[C@H]1O[C@H](COS(=O)(=O)O)[C@H](OS(=O)(=O)O)[C@H](O)[C@H]1O)[C@H](O)/C=C/CCCCCCCCCCCCC [Example 4, (2S,3R,4E)-3-Hydroxy-2-(cis-15-tetracosenoylamino)-1-[4,6-di-O-(sodiumoxysulfonyl)-α-D-galactopyranosyloxy]-4-octadecene] as the compound, how does the pIC50 (P-selectin [1]) read?
**A.** Its pIC50 is 5.05.

**Q.** And the pIC50 (P-selectin Rg)?
**A.** Its pIC50 is 5.10.

**Q.** With CCCCCCCCCCCCC/C=C/[C@@H](OC(=O)c1ccccc1)[C@H](CO[C@H]1O[C@H](COS(=O)(=O)O)[C@@H](OS(=O)(=O)O)[C@H](OC(=O)c2ccccc2)[C@H]1OC(=O)c1ccccc1)NC(=O)CCCCCCCCCCCCCCC [Example 7, (2S,3R,4E)-3-Benzoyloxy-2-hexadecanoylamino-1-[-2,3-di-O-benzoyl-4,6-di-O-(sodiumoxysulfonyl)-α-D-glucopyranosyloxy]-4-octadecene] as the compound, how does the pIC50 (P-selectin [1]) read?
**A.** The pIC50 was roughly 6.40.

**Q.** What about the pIC50 (P-selectin Rg) of the same compound?
**A.** Its pIC50 is 4.96.

**Q.** And the “RPA MPO % Inhib.” value (rats)?
**A.** Its value is 97%.

**Q.** What about the “RPA VP % Inhib.” value (rats) of the same compound?
**A.** The value was 88%.

**Q.** With CCCCCC/C=C/[C@@H](OC(=O)c1ccccc1)[C@H](CO[C@H]1O[C@H](COS(=O)(=O)O)[C@H](OS(=O)(=O)O)[C@H](OC(=O)c2ccccc2)[C@H]1OC(=O)c1ccccc1)NC(=O)CCCCC [Example 10, (2S,3R,4E)-1-[2,3-di-O-benzoyl-4,6-Di-O-(sodiumoxysulfonyl)-α-D-galactopyranosyloxy]-3-benzoyloxy-2-hexanoylamino-4-undecene] as the compound, how does the pIC50 (P-selectin [1]) read?
**A.** Its pIC50 is less than 5.21.

**Q.** And the pIC50 (P-selectin Rg)?
**A.** The pIC50 was 5.10.

**Q.** What about the “RPA MPO % Inhib.” value (rats) of the same compound?
**A.** Its value is 71.6%.

**Q.** And the “RPA VP % Inhib.” value (rats)?
**A.** Its value is 11%.

**Q.** What does the source list for CCCCCCCCCCCCC/C=C/[C@@H](OC(=O)c1ccccc1)[C@H](CO[C@H]1O[C@H](COS(=O)(=O)O)[C@H](OS(=O)(=O)O)[C@H](OCc2ccccc2)[C@H]1OCc1ccccc1)NC(=O)CCCCCCCCCCCCCCC [Example 11, (2S,3R,4E)-2-Hexadecanoylamino-3-benzoyloxy-1-[2,3-di-O-benzyl-4,6-di-O-(sodiumoxysulfonyl)-α-D-galactopyranosyloxy]-4-octadecene]?
**A.** pIC50 (P-selectin [1]): 5.77; pIC50 (P-selectin Rg): 5.05; RPA MPO % Inhib. (rats): 53.7%; RPA VP % Inhib. (rats): 32%

**Q.** With CCCCCCCCCCCCC/C=C/[C@@H](OC(=O)c1ccccc1)[C@H](CO[C@H]1O[C@H](COS(=O)(=O)O)[C@H](O)[C@H](O)[C@H]1OS(=O)(=O)O)NC(=O)CCCCCCCCCCCCCCC [Example 15, (2S,3R,4E)-3-Benzoyloxy-2-hexadecanoylamino-1-[2,6-di-O-(sodiumoxysulfonyl)-α-D-galactopyranosyloxy]-4-octadecene] as the compound, how does the pIC50 (P-selectin [1]) read?
**A.** The pIC50 was 5.66.

**Q.** And the pIC50 (P-selectin Rg)?
**A.** Its pIC50 is 5.28.

**Q.** And the “RPA MPO % Inhib.” value (rats)?
**A.** Its value is 0%.

**Q.** What about the “RPA VP % Inhib.” value (rats) of the same compound?
**A.** Its value is 50%.

**Q.** What does the source list for CCCCCCCCCCCCC/C=C/[C@@H](OC(=O)c1ccccc1)[C@H](CO[C@H]1O[C@H](COS(=O)(=O)O)[C@H](OS(=O)(=O)O)[C@H](OS(=O)(=O)O)[C@H]1OS(=O)(=O)O)NC(=O)CCCCCCCCCCCCCCC [Example 23, (2S,3R,4E)-3-Benzoyloxy-2-hexadecanoylamino-1-[2,3,4,6-tetra-O-(sodiumoxysulfonyl)-α-D-galactopyranosyloxy]-4-octadecene]?
**A.** pIC50 (P-selectin [1]): < 5.10; pIC50 (P-selectin Rg): 5.59; RPA MPO % Inhib. (rats): 26.4%; RPA VP % Inhib. (rats): 0%

**Q.** For dextran sulfate, which “inhibit P-selectin mediated adhesion” value (P-selectin [2]) is on record?
**A.** Its value is “inhibit P-selectin mediated adhesion”.

**Q.** Which “inhibit P-selectin mediated adhesion” value (P-selectin [2]) does the source give for fucoidan here?
**A.** The value was “inhibit P-selectin mediated adhesion”.
